How the values were obtained:
5HT-uptake = molecular target: T1, 5HT-uptake (Rattus norvegicus, UniProt P31652); assay: biochemical; settings: read-out: 5HT-uptake [10 μM], % inhibition
T1 construct: synaptosomes were freshly isolated from areas of rats' brains

NA-uptake = NA-uptake (Rattus norvegicus, UniProt Q63380); assay: biochemical; settings: read-out: NA-uptake [10 μM], % inhibition
Chain of NA-uptake (Q63380 1-617): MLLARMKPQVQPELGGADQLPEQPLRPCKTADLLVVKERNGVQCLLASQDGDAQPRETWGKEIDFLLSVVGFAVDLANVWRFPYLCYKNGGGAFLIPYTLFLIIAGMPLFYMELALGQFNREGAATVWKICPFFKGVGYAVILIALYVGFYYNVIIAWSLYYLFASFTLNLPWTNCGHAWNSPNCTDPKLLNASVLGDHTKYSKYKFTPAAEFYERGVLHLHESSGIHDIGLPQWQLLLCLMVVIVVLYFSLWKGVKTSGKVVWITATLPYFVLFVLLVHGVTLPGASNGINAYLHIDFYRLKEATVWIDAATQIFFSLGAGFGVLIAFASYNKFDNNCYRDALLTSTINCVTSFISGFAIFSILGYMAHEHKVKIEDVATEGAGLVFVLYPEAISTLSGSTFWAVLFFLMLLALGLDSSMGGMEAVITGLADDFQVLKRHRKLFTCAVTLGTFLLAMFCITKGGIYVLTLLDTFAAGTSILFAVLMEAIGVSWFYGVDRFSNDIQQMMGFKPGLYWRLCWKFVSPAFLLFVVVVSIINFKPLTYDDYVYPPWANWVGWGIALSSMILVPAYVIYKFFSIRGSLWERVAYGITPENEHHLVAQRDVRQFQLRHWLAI

T1 sequence (P31652 whole entry): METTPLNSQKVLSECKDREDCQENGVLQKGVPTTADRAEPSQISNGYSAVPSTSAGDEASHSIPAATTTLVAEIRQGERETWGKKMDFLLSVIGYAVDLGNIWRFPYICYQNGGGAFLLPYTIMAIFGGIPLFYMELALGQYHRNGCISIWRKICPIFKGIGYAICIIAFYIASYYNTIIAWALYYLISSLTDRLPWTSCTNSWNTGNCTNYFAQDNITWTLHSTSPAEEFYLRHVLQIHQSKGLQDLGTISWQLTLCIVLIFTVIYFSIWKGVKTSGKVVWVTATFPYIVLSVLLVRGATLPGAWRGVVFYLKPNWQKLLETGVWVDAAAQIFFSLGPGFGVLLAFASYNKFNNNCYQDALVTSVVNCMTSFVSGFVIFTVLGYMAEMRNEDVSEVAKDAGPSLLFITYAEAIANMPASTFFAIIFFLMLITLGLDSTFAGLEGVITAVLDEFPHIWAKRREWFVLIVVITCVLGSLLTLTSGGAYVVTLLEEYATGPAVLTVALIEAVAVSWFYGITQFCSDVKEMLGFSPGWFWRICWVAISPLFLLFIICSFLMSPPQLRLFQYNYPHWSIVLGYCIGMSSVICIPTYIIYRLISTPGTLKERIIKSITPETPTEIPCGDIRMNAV

Structure (SMILES): CCOP(=O)(Cc1ccc(NC(=O)CCC(=O)NC2CCC(Cc3cccc(Cl)c3)(N(C)C)CC2)cc1)OCC (stereo not drawn) [Example 37, (4-{3-[4-(3-chloro-benzyl)-4-dimethylamino-cyclohexylcarbamoyl]-propionylamino}-benzyl)-phosphonic acid diethylester]
- inhibition at 10 µM (5HT-uptake): 95%
- inhibition at 10 µM (NA-uptake): 100%

Structure (SMILES): CN(C)C1(Cc2cccc(Cl)c2)CCC(NC(=O)CCC(=O)N2CC=CCC2)CC1 (stereo not drawn) [Example 39, N-[4-(3-chloro-benzyl)-4-dimethylamino-cyclohexyl]-4-(3,6-dihydro-2H-pyridin-1-yl)-4-oxo-butyramide]
- inhibition at 10 µM (5HT-uptake): 94%
- inhibition at 10 µM (NA-uptake): 90%

Structure (SMILES): CC1CN(C(=O)CCC(=O)NC2CCC(Cc3ccc(Cl)cc3)(N(C)C)CC2)CC(C)O1 (stereo not drawn) [Example 86, N-[4-(4-chloro-benzyl)-4-dimethylamino-cyclohexyl]-4-(2,6-dimethyl-morpholin-4-yl)-4-oxo-butyramide]
- inhibition at 10 µM (5HT-uptake): 92%
- inhibition at 10 µM (NA-uptake): 76%

Structure (SMILES): CN(C)C1(Cc2cccc(Cl)c2)CCC(NC(=O)CCC(=O)NCc2cc(Cl)ccc2Cl)CC1 (stereo not drawn) [Example 133, N-[4-(3-chloro-benzyl)-4-dimethylamino-cyclohexyl]-N′-(2,5-dichloro-benzyl)-succinamide]
- inhibition at 10 µM (5HT-uptake): 93%
- inhibition at 10 µM (NA-uptake): 97%

Structure (SMILES): Cc1ccc(CC2(N(C)C)CCC(NC(=O)CCC(=O)N3CCN(c4ccccc4C)CC3)CC2)cc1 (stereo not drawn) [Example 94, N-[4-dimethylamino-4-(4-methyl-benzyl)-cyclohexyl]-4-oxo-4-(4-o-tolyl-piperazin-1-yl)-butyramide]
- inhibition at 10 µM (5HT-uptake): 92%
- inhibition at 10 µM (NA-uptake): 86%

Structure (SMILES): Cc1ccc(CC2(N(C)C)CCC(NC(=O)CCC(=O)N3CCN(c4ccc(Cl)cc4)CC3)CC2)cc1 (stereo not drawn) [Example 96, 4-[4-(4-chloro-phenyl)-piperazin-1-yl]-N-[4-dimethylamino-4-(4-methyl-benzyl)-cyclohexyl]-4-oxo-butyramide]
- inhibition at 10 µM (5HT-uptake): 94%
- inhibition at 10 µM (NA-uptake): 87%

Structure (SMILES): CN(C)C1(Cc2ccc(Cl)cc2)CCC(NC(=O)CCC(=O)N2CC=C(c3ccc(F)cc3)CC2)CC1 (stereo not drawn) [Example 104, N-[4-(4-chloro-benzyl)-4-dimethylamino-cyclohexyl]-4-[4-(4-fluoro-phenyl)-3,6-dihydro-2H-pyridin-1-yl]-4-oxo-butyramide]
- inhibition at 10 µM (5HT-uptake): 93%
- inhibition at 10 µM (NA-uptake): 84%

Structure (SMILES): Cc1cnc(C(=O)N2CCN(C(=O)CCC(=O)NC3CCC(Cc4ccc(Cl)cc4)(N(C)C)CC3)CC2)cn1 (stereo not drawn) [Example 14, N-[4-(4-chloro-benzyl)-4-dimethylamino-cyclohexyl]-4-[4-(5-methyl-pyrazin-2-carbonyl)-piperazin-1-yl]-4-oxo-butyramide]
- inhibition at 10 µM (5HT-uptake): 95%
- inhibition at 10 µM (NA-uptake): 78%

Structure (SMILES): Cc1cccc(CC2(N(C)C)CCC(NC(=O)CCC(=O)NC(C)c3ccc(F)cc3)CC2)c1 (stereo not drawn) [Example 112, N-[4-dimethylamino-4-(3-methyl-benzyl)-cyclohexyl]-N′-[1-(4-fluoro-phenyl)-ethyl]-succinamide]
- inhibition at 10 µM (5HT-uptake): 96%
- inhibition at 10 µM (NA-uptake): 101%

Structure (SMILES): CN(C)C1(Cc2ccc(Cl)cc2)CCC(NC(=O)CCC(=O)Nc2ccc3c(c2)CCC3)CC1 (stereo not drawn) [Example 100, N-[4-(4-chloro-benzyl)-4-dimethylamino-cyclohexyl]-N′-indan-5-yl-succinamide]
- inhibition at 10 µM (5HT-uptake): 92%
- inhibition at 10 µM (NA-uptake): 77%

Structure (SMILES): Cc1ccc(CC2(N(C)C)CCC(NC(=O)CCC(=O)Nc3ccc(OCc4ccccc4)cc3)CC2)cc1 (stereo not drawn) [Example 101, N-(4-benzyloxy-phenyl)-N′-[4-dimethylamino-4-(4-methyl-benzyl)-cyclohexyl]-succinamide]
- inhibition at 10 µM (5HT-uptake): 94%
- inhibition at 10 µM (NA-uptake): 77%

Structure (SMILES): CN(C)C1(Cc2ccc(Cl)cc2)CCC(NC(=O)CCC(=O)NCc2cc(F)cc(F)c2)CC1 (stereo not drawn) [Example 49, N-[4-(4-chloro-benzyl)-4-dimethylamino-cyclohexyl]-N′-(3,5-difluoro-benzyl)-succinamide]
- inhibition at 10 µM (5HT-uptake): 92%
- inhibition at 10 µM (NA-uptake): 98%

Reference: patent publication US8088763B2 (priority 2004, dated 2012)
